In assay [1] the test system is Plasmodium falciparum clone CDC Sierra Leone I (D-6). Briefly: In vitro inhibition of [3H]hypoxanthine uptake, P. falciparum D-6 clone. The format is cell-based. The settings on record: Plasmodium falciparum, read-out: IC50 (D-6). The procedure:
(§1) The in vitro assays were conducted by using a modification of the semiautomated microdilution technique of Desjardins et al.^11 and Chulay et al.^12 Two strains of Plasmodium falciparum clones, from CDC Indochina III (W-2), CDC Sierra Leone I (D-6). […] These solutions were subsequently serially diluted 2-fold with a Biomek 1000® (Beckman, Fullerton, Calif.) over 11 different concentrations. The parasites were exposed to serial dilutions of each compound for 48 h and incubated at 37° C. with 5% O2, 5% CO2, and 90% N2 prior to the addition of [^3H]hypoxanthine. […] Uptake of [^3H]hypoxanthine was measured with a Packard Topcount scintillation counter. […] The values without parentheses indicate culture in blood serum which more closely resemble conditions in a living animal.
(§2) The numbers associated with both W2 and D6 refer to IC50 values and the units are ng/ml.

The subject of assay [2] is Plasmodium falciparum clone CDC Indochina III (W-2). Briefly: In vitro inhibition of [3H]hypoxanthine uptake, P. falciparum W-2 clone. The format is cell-based. The following applies: Plasmodium falciparum, read-out: IC50 (W-2). On the procedure: as §1, §2
The mark [3] stands for this setting: values in parentheses: culture medium with 10% Albumax I.

Values after ≈ are worked out from the molar mass of the structure shown. Like-named read-outs stand apart in the source and are kept apart here.

Consider 29 compounds from patent publication US8012987B2, “Indolo[2,1-b] quinazole-6,12-dione antimalarial compounds and methods of treating malaria therewith” (The United States of America as represented by the …, priority 1998, dated 2011).

What is called IC50 is the concentration that inhibits the measured activity by half.

Turning to `O=C1c2cc(Cl)ccc2-n2c1nc1ccc(I)cc1c2=O` [Example 42], the IC50 is 0.0764 µg/mL (≈ 0.187 µM) in assay [1] (setting [3]) and 0.0632 µg/mL (≈ 0.155 µM) in assay [2] (setting [3]).
On to `O=C(N/N=C1\c2ccccc2-n2c1nc1ccccc1c2=O)c1ccncc1` [Example 43], for which the IC50 in assay [1] (setting [3]) came to 38.2 µg/mL (≈ 104 µM); in assay [2] (setting [3]) it was 23 µg/mL (≈ 62.6 µM).
The like results for `CCCCCCCCc1ccc2nc3n(c(=O)c2c1)-c1ccc(Cl)cc1C3=O` [Example 44] were, in that order, 6.92 µg/mL (≈ 17.5 µM) and 5.86 µg/mL (≈ 14.8 µM).
The like results for `CCN(CCN(C)C)c1ccc2c(=O)n3c(nc2c1)C(=O)c1cc(Cl)ccc1-3` [Example 49] were, in that order, 0.0739 µg/mL (≈ 0.186 µM) and 0.0747 µg/mL (≈ 0.188 µM).
The matching figures for `O=C1c2cc(Cl)ccc2-n2c1nc1ncncc1c2=O` [Example 50]: 0.0442 µg/mL (≈ 0.155 µM) and 0.0112 µg/mL (≈ 0.0392 µM).
On to `O=C1/C(=c2\c3ccccc3n3c(=O)c4ccccc4nc23)Nc2ccccc21` [Example 51], for which the results for the IC50 in assay [1] and in assay [2] were 8.69 µg/mL (≈ 23.9 µM) and 8.76 µg/mL (≈ 24.1 µM), respectively.
In the case of `O=C1c2ccccc2-n2c1nc1ccncc1c2=O` [Example 52], the values for the IC50 in assay [1] (setting [3]) and in assay [2] (setting [3]) were 0.0733 µg/mL (≈ 0.294 µM) and 0.0647 µg/mL (≈ 0.26 µM), respectively.
The like results for `CCOC(=O)c1nc2ccccc2c(=O)n1-c1ccccc1` [Example 53] were, in that order, 9.01 µg/mL (≈ 30.6 µM) and 4.87 µg/mL (≈ 16.6 µM).
The like results for `Cc1ncc2c(=O)n3c(nc2n1)C(=O)c1cc(I)ccc1-3` [Example 54] were, in that order, 0.0746 µg/mL (≈ 0.191 µM) and 0.124 µg/mL (≈ 0.318 µM).
Regarding `Cc1ncc2c(=O)n3c(nc2n1)C(=O)c1ccccc1-3` [Example 56], the IC50 in assay [1] (setting [3]) was found to be 0.216 µg/mL (≈ 0.817 µM); in assay [2] (setting [3]), 0.117 µg/mL (≈ 0.443 µM).
The like results for `CN(CC(=O)O)c1ccc2c(=O)n3c(nc2c1)C(=O)c1cc(Cl)ccc1-3` [Example 60] were, in that order, 0.0781 µg/mL (≈ 0.211 µM) and 0.0679 µg/mL (≈ 0.184 µM).
The matching figures for `CN(CCOC(=O)CCC(=O)O)c1ccc2c(=O)n3c(nc2c1)C(=O)c1cc(Cl)ccc1-3` [Example 61]: 0.247 µg/mL (≈ 0.542 µM) and 0.187 µg/mL (≈ 0.41 µM).
The like results for `COCc1ccc2c(c1)C(=O)c1nc3ccncc3c(=O)n1-2` [Example 62] were, in that order, 0.0313 µg/mL (≈ 0.107 µM) and 0.016 µg/mL (≈ 0.0546 µM).
`CCOC(=O)C(O)(C(=O)OCC)C1c2ccccc2-n2c1nc1ccccc1c2=O` (stereo not shown) [Example 65]: the IC50 in assay [1] (setting [3]) was found to be 0.259 µg/mL (≈ 0.634 µM); in assay [2] (setting [3]), 0.154 µg/mL (≈ 0.377 µM).
The matching figures for `CN1CCN(/N=C\c2ccc3c(c2)C(=O)c2nc4ccncc4c(=O)n2-3)CC1` [Example 66]: 0.517 µg/mL (≈ 1.38 µM) and 0.449 µg/mL (≈ 1.2 µM).
As to `O=c1c2ccccc2nc2/c(=C/C=C/c3ccccc3)c3ccccc3n12` [Example 67], the IC50 in assay [1] (setting [3]) is 4.44 µg/mL (≈ 12.7 µM); in assay [2] (setting [3]), 4.42 µg/mL (≈ 12.7 µM).
The matching figures for `CCCCCCC(C)c1ccc2c(c1)C(=O)c1nc3ccncc3c(=O)n1-2` (stereo not shown) [Example 71]: 0.143 µg/mL (≈ 0.397 µM) and 0.12 µg/mL (≈ 0.332 µM).
For the compound `CCCCCCCCc1ccc2c(c1)C(=O)c1nc3cc(N(C)CCO)ccc3c(=O)n1-2` [Example 72], the results for the half-maximal inhibitory concentration (IC50) in assay [1] (setting [3]) and in assay [2] (setting [3]) were 7.86 µg/mL (≈ 18.1 µM) and 7.46 µg/mL (≈ 17.2 µM), respectively.
The matching figures for `COc1cccc2c(=O)n3c(nc12)/c(=C/c1ccccc1)c1cc(F)ccc13` [Example 75]: 0.534 µg/mL (≈ 1.44 µM) and 0.573 µg/mL (≈ 1.55 µM).
The matching figures for `CCOC(=O)C(O)(C(=O)OCC)C1c2cc(F)ccc2-n2c1nc1c(OC)cccc1c2=O` (stereo not shown) [Example 76]: 0.224 µg/mL (≈ 0.49 µM) and 0.16 µg/mL (≈ 0.35 µM).
With `O=C1c2cc(C3OCCCO3)ccc2-n2c1nc1ccncc1c2=O` [Example 77], the IC50 in assay [1] (setting [3]) was determined as 0.22 µg/mL (≈ 0.657 µM); in assay [2] (setting [3]), 0.165 µg/mL (≈ 0.493 µM).
As to `CN(CCO)c1ccc2c(=O)n3c(nc2c1)C(=O)c1cc(OC(F)(F)F)ccc1-3` [Example 79], the results for the IC50 in assay [1] (setting [3]) and in assay [2] (setting [3]) were 0.07 µg/mL (≈ 0.173 µM) and 0.0688 µg/mL (≈ 0.17 µM), respectively.
As to `O=c1c2ccccc2nc2n1-c1ccccc1C21OCCO1` [Example 80], the IC50 in assay [1] (setting [3]) is 7.97 µg/mL (≈ 27.3 µM); in assay [2] (setting [3]), 6.9 µg/mL (≈ 23.6 µM).
The matching figures for `CC1(C)COC(c2ccc3c(c2)C(=O)c2nc4ccncc4c(=O)n2-3)OC1` [Example 81]: 0.11 µg/mL (≈ 0.303 µM) and 0.0739 µg/mL (≈ 0.203 µM).
The matching figures for `Cc1ccc2c(c1)C(=O)c1nc3ccncc3c(=O)n1-2` [Example 82]: 0.0628 µg/mL (≈ 0.239 µM) and 0.124 µg/mL (≈ 0.471 µM).
On to `O=C1c2cc(C(O)(C(F)(F)F)C(F)(F)F)ccc2-n2c1nc1ccncc1c2=O` [Example 84], for which the IC50 in assay [1] (setting [3]) was 1.71 µg/mL (≈ 4.12 µM); in assay [2] (setting [3]), 0.938 µg/mL (≈ 2.26 µM).
As for `COCCOC(c1ccc2c(c1)C(=O)c1nc3ccncc3c(=O)n1-2)C(C)C` (stereo not shown) [Example 85], the IC50 in assay [1] (setting [3]) was determined as 0.136 µg/mL (≈ 0.358 µM); in assay [2] (setting [3]) it was 0.105 µg/mL (≈ 0.278 µM).
The matching figures for `O=C(N/N=C\c1ccc2c(c1)C(=O)c1nc3ccncc3c(=O)n1-2)c1ccncc1` [Example 88]: 0.49 µg/mL (≈ 1.24 µM) and 0.177 µg/mL (≈ 0.448 µM).
For `O=C1c2cc(/C=N/N3CCCCC3)ccc2-n2c1nc1ccncc1c2=O` [Example 89], the values for the IC50 in assay [1] (setting [3]) and in assay [2] (setting [3]) were 0.112 µg/mL (≈ 0.311 µM) and 0.0688 µg/mL (≈ 0.191 µM), respectively.
